According to US7256208B2 (priority 2003, dated 2007):

Experiments:
[1] = system: wild type AR (MDA 453 cells); conditions: read-out: Kd for [3H]-DHT, Scatchard analysis
Experimental: For the whole-cell binding assay, human LNCaP cells (T877A mutant AR) or MDA 453 (wild type AR) in 96-well microtiter plates containing RPMI 1640 or DMEM supplemented with 10% charcoal stripped CA-FBS (Cocaleco Biologicals) respectively, were incubated at 37° C. to remove any endogenous ligand that might be complexed with the receptor in the cells.
For the saturation analysis, the difference between the total binding and the non-specific binding, was defined as specific binding. […] See e.g. D. Rodbard, Mathematics and statistics of ligand assays: an illustrated guide: In: J. Langon and J. J. Clapp, eds., Ligand Assay, Masson Publishing U.S.A., Inc., New York, pp. 45-99, (1981), the disclosure of which is herein incorporated by reference.
Two replicates were used for each sample.

AR = molecular target: T1, AR (Rattus norvegicus, UniProt P15207)
T1 sequence (P15207 1-902): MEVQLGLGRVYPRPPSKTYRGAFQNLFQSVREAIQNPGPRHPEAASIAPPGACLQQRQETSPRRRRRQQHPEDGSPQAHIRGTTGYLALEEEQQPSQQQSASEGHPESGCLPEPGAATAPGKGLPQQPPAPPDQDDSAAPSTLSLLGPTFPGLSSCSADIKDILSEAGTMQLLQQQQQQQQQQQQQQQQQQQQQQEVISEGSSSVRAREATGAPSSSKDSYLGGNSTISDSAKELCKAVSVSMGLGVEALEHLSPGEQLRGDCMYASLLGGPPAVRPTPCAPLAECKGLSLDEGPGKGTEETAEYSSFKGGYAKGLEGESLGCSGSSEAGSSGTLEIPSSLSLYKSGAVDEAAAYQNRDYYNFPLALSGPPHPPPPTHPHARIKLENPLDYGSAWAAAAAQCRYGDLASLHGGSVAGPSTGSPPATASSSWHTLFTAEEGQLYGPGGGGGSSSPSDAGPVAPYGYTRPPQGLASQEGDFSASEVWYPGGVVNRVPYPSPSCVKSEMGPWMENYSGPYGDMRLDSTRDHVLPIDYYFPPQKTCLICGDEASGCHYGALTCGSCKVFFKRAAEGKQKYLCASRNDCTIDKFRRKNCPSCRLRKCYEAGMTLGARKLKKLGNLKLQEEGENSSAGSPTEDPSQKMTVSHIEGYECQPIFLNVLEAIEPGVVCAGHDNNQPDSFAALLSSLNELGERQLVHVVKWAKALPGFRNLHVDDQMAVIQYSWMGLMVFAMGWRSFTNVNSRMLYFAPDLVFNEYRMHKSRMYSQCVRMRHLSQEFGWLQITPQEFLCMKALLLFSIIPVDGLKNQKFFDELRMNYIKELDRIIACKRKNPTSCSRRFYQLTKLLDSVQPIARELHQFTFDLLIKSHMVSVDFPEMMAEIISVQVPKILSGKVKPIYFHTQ
Description: The activity of compounds of the present invention as AR agonists was investigated in an immature male rat model, a recognized test of anabolic effects in muscle and sustaining effects in sex organs for a given compound, as described in L. G. Hershberger et al., Proc. Soc. […] Biol. Med., 83, 175 (1953); B. L. Beyler et al, “Methods for evaluating anabolic and catabolic agents in laboratory animals”, J. Amer. Med. Women's Ass., 23, 708 (1968); H. Fukuda et al., “Investigations of the levator ani muscle as an anabolic steroid assay”, Nago Dai. Yak. Ken. Nem. 14, 84 (1966) the disclosures of which are herein incorporated by reference.
The basis of this assay lies in the well-defined action of androgenic agents on the maintenance and growth of muscle tissues and sexual accessory organs in animals and man. […] J. Anat. […] Ital. Biol. Sper. […] II. […] Ital. Biol. Sper. 42, 1600 (1966); A. Boris et al., Steroids 15, 61 (1970). As described above, the effects of androgens on maintenance of male sexual accessory organs, such as the prostate and seminal vesicles, is well described. Castration results in rapid involution and atrophy of the prostate and seminal vesicles. This effect can be reversed by exogenous addition of androgens. […]

## N#Cc1ccc(N2C(=O)N/C(=C\c3ccc(O)cc3)C2=O)c2ccccc12
other
  melting point: > 275 °C

## N#Cc1ccc(N2C(=O)N/C(=C\c3ccccc3O)C2=O)c2ccccc12
other
  melting point: 251 to 252 °C

## tritiated dihydrotestosterone [[^3H]-DHT]
[1]
  Kd: 0.7 nM

## CCC(=O)O[C@H]1CC[C@H]2[C@@H]3CCC4=CC(=O)CC[C@]4(C)[C@H]3CC[C@]12C [TP, testosterone propionate]
AR; TP versus free T
  potency relative to free T: 10-30 fold
AR; castrated rats, dosing for 3 days
  EC50 (increase in organ weight): ~0.03 mg
